Results from patent US20260184712A1, “Heterocyclic Compounds as ENT Inhibitors and Compounds for Use in the Treatment of Cancers” (iTeos Belgium SA, priority 2022, published 2026).
pIC50: −log10 of the molar value.

Experiments:
human ENT1 = molecular target: T1, human ENT1 (Homo sapiens, UniProt Q99808); assay: ENT1 binding assay (competition with Sahenta-DY647 on JAR cells); details: competition with SAHENTA-DY647 binding; IC50 categorized; read-out: Binding Assay IC50
T1 construct: JAR cells expressing ENT1 were purchased from ATCC; host or cells: JAR cells
T1 sequence (Q99808 1-456): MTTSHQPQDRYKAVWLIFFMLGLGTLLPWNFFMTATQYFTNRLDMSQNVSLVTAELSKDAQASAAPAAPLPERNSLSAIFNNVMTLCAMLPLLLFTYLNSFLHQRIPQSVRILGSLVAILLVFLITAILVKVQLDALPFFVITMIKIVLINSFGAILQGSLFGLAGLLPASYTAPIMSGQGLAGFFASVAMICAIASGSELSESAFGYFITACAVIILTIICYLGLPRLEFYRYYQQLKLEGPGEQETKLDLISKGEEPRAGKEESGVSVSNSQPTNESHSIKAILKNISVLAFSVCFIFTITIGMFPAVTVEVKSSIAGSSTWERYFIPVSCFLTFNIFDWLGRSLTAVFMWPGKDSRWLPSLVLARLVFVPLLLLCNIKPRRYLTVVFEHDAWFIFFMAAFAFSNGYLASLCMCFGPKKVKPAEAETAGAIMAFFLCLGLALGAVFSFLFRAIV
Procedure, shortened: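 Whole-cell competition on JAR cells (native ENT1): 50,000 cells pre-incubated 30 min at 4 °C with compound in HBSS/10 mM Hepes/0.1% BSA, then 100 nM Sahenta-DY647 added for 30 min at 4 °C. After washing, fluorescence (Ex 630/Em 670 nm) read; IC50 from sigmoidal fit, averaged as pIC50.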

[1] = tested on: stimulated primary human T cells; assay: T cell proliferation assay, Condition B (X-VIVO15, 2% HSA and 0.1% AAG); format: cell-based; details: Homo sapiens, T-cell, 96 h; Condition B: X-VIVO15 medium containing HSA and α1-Acid Glycoprotein; anti-CD3/anti-CD28 beads, ATP, 4 days; CFSE-lo T cells
Method: (§1) The goal of this study was to determine the potency of ENT1 inhibitors by measuring the rescued proliferation of stimulated primary human T cells incubated in the presence of 100 uM Adenosine triphosphate (ATP), in baseline conditions (condition A) or in the presence of various proteins known to bind small molecules (condition B).
Condition B: X-VIVO15, 2% Human Serum Albumin (HSA) and 0.1% α-1-Acid Glycoprotein (AAG)
(§2) Venous blood from healthy volunteers, all of whom signed an informed consent approved by the Ethics Committee (FOR—UIC—BV-050-01-01 ICF_HBS_HD Version 5.0), was obtained by ImmuneHealth (Centre Hospitalier Universitaire Tivoli, La Louviere, Belgium). Mononuclear cells were collected by density gradient centrifugation, using SepMate-50 tubes (StemCell Technologies, Grenoble, France) and Lymphoprep (Stemcell Technologies) according to the manufacturer's instructions. CD3+ T cells were isolated by immunomagnetic negative selection, using the EasySep Human T Cell Isolation Kit (StemCell Technologies) as per the manufacturer's instructions. CD3+ T cells were stored in heat inactivated FBS (hiFBS; Gibco, ThermoFisher Scientific, Merelbeke, Belgium) and 10% DMSO in liquid nitrogen.
(§3) Purified human CD3+ T cells were thawed and washed once with RPMI1640 medium, UltraGlutamine (Lonza, Verviers, Belgium) containing 10% hiFBS. Cells were resuspended in PBS containing 10% hiFBS at 1×10^7 cells/ml. One volume of cells was combined with a matching volume of 2 μM CFSE solution in PBS, mixed well by pipetting, and incubated at room temperature for 5 minutes under rotation and protected from light. Excess CFSE was quenched by addition of PBS containing 10% hiFBS, and the cells were centrifuged (300×rcf, 7 minutes) and resuspended in X-VIVO15. Cells were again centrifuged and resuspended in X-VIVO15 for counting.
(§4) Cells were resuspended at 1.6×10^6 cells/mL in X-VIVO15 medium (Condition A) or X-VIVO15 medium containing 4% (v/v) HSA (Sigma-Aldrich, Diegem, Belgium) and 0.2% (v/v) ai-Acid Glycoprotein (Sigma-Aldrich, Diegem, Belgium) (Condition B).
(§5) […] of cell suspension (2×10^4 cells) was added to wells of sterile flat-bottom 384-well plates. Cells were activated by adding […] of anti-CD3 anti-CD28 coated microbeads (Dynabeads human T-activator CD3/CD28; Life Technologies, Paisley, UK) suspended in X-VIVO15 medium or X-VIVO15 medium containing 4% (v/v) HSA and 0.2% (v/v) ai-Acid Glycoprotein at a ratio of one microbead per two cells. Serial dilutions of the ENT1 inhibitors were conducted in X-VIVO15 medium and […] of the diluent was added to the wells. Cells were mixed by pipetting up and down and pre-incubated for 30 minutes in a 37° C. humidified tissue culture incubator with 5% CO2. After pre-incubation, cells were cultured in the presence or absence of ATP (Sigma-Aldrich) at a final concentration of […]. The final well volume was 50 μl in all cases. Experiments were performed in biological duplicates. Cells were mixed by pipetting up and down and incubated for 4 days in a 37° C. humidified tissue culture incubator with 5% CO2.
(§6) Samples were run on a BD LSR Fortessa FACS machine (BD FACSDiva Software v9.0.1). Data were analyzed using FlowJo (BD, v10.7.1). T cell proliferation was determined by measuring the frequency of ‘CFSE^lo’ (i.e. CFSE-diluted).
(§7) T cell proliferation data were analyzed using FlowJo software (Version 10.6.2). Dead cells and cellular debris were excluded on the basis of forward and side scatter profile and singlet cells were selected for further analysis.
(§8) T cell proliferation was determined based on the percent CFSE^lo total T cells for each condition. The data were plotted on the y-axis against log molar (M) concentration of ENT1 inhibitors on the x-axis in GraphPad Prism (version 9.0.0). IC50 and IC90 values were generated with the ‘log(agonist) vs. response—Find ECanything(F))’ function with F constrained to 50 or 90, respectively. pICF values were generated by taking the −logECF values.

[2] = tested on: stimulated primary human T cells; assay: T cell proliferation assay, Condition A (X-VIVO15); format: cell-based; details: Homo sapiens, T-cell, 96 h; Condition A: X-VIVO15 medium; anti-CD3/anti-CD28 beads, ATP, 4 days; CFSE-lo T cells
Method: as §1, §2, §3, §4, §5, §6, §7, §8

Compound | pIC50 (human ENT1) | pIC50 [1] | pIC50 [2]
C[C@H]1O[C@H](n2c(NCc3ccccc3)nc3c(OCc4ccc(OC(F)F)cc4)ncnc32)[C@H](O)[C@@H]1O [Compound 8] | 7.70 to 9.00 | 6.30 to 7.70 | > 9.00
C[C@H]1O[C@@H](n2c(NC3CCC(F)(F)C3)nc3c(OCc4ccc([N+](=O)[O-])cc4)ncnc32)[C@H](O)[C@@H]1O (stereo partly drawn) [Compound 9] | > 9.00 | 7.70 to 9.00 | > 9.00
C[C@H]1O[C@@H](n2c(NC3CCC(F)(F)CC3)nc3c(OCc4ccc([N+](=O)[O-])cc4)ncnc32)[C@H](O)[C@@H]1O [Compound 10] | 7.70 to 9.00 | 7.70 to 9.00 | > 9.00
C[C@H]1O[C@@H](n2c(NC3CCCC3)nc3c(OCc4ccc(OC(F)F)cc4)ncnc32)[C@H](O)[C@@H]1O [Compound 11] | > 9.00 | 7.70 to 9.00 | > 9.00
C[C@H]1O[C@@H](n2c(NC3CCCC3)nc3c(OCc4ccc(C#N)cc4)ncnc32)[C@H](O)[C@@H]1O [Compound 12] | > 9.00 | 6.30 to 7.70 | > 9.00
C[C@H]1O[C@@H](n2c(NC3CCCC3)nc3c(OCc4ccc(OC(F)F)nc4)ncnc32)[C@H](O)[C@@H]1O [Compound 14] | > 9.00 | 6.30 to 7.70 | > 9.00
C[C@H]1O[C@@H](n2c(Nc3cnn(C)c3)nc3c(OCc4ccc([N+](=O)[O-])cc4)ncnc32)[C@H](O)[C@@H]1O [Compound 17] | 7.70 to 9.00 | 6.30 to 7.70 | 7.70 to 9.00
C[C@H]1O[C@@H](n2c(NC3CCOC3)nc3c(OCc4ccc([N+](=O)[O-])cc4)ncnc32)[C@H](O)[C@@H]1O (stereo partly drawn) [Compound 18] | 7.70 to 9.00 | 7.70 to 9.00 | > 9.00
CCNc1nc2c(OCc3ccc([N+](=O)[O-])cc3)ncnc2n1[C@@H]1O[C@H](C)[C@@H](O)[C@H]1O [Compound 20] | 7.70 to 9.00 | 6.30 to 7.70 | > 9.00
C[C@H]1O[C@@H](n2c(NCCO)nc3c(OCc4ccc([N+](=O)[O-])cc4)ncnc32)[C@H](O)[C@@H]1O [Compound 21] | 7.70 to 9.00 | 6.30 to 7.70 | 7.70 to 9.00
C[C@H]1O[C@@H](n2c(NCCCO)nc3c(OCc4ccc([N+](=O)[O-])cc4)ncnc32)[C@H](O)[C@@H]1O [Compound 22] | 7.70 to 9.00 | 6.30 to 7.70 | 7.70 to 9.00
COCCNc1nc2c(OCc3ccc([N+](=O)[O-])cc3)ncnc2n1[C@@H]1O[C@H](C)[C@@H](O)[C@H]1O [Compound 23] | 7.70 to 9.00 | 6.30 to 7.70 | > 9.00
C[C@H]1O[C@@H](n2c(NCC(F)(F)F)nc3c(OCc4ccc([N+](=O)[O-])cc4)ncnc32)[C@H](O)[C@@H]1O [Compound 24] | 7.70 to 9.00 | 6.30 to 7.70 | 7.70 to 9.00
CC(C)Nc1nc2c(OCc3ccc([N+](=O)[O-])cc3)ncnc2n1[C@@H]1O[C@H](C)[C@@H](O)[C@H]1O [Compound 25] | > 9.00 | 7.70 to 9.00 | > 9.00
C[C@H]1O[C@@H](n2c(NC3CC3)nc3c(OCc4ccc([N+](=O)[O-])cc4)ncnc32)[C@H](O)[C@@H]1O [Compound 26] | 7.70 to 9.00 | 6.30 to 7.70 | 7.70 to 9.00
C[C@H]1O[C@@H](n2c(NC3CCC(O)C3)nc3c(OCc4ccc([N+](=O)[O-])cc4)ncnc32)[C@H](O)[C@@H]1O (stereo partly drawn) [Compound 29] | > 9.00 | 7.70 to 9.00 | > 9.00
C[C@H]1O[C@@H](n2c(NC3CCOCC3)nc3c(OCc4ccc([N+](=O)[O-])cc4)ncnc32)[C@H](O)[C@@H]1O [Compound 30] | > 9.00 | 7.70 to 9.00 | > 9.00
C[C@H]1O[C@@H](n2c(NC3CCS(=O)(=O)CC3)nc3c(OCc4ccc([N+](=O)[O-])cc4)ncnc32)[C@H](O)[C@@H]1O [Compound 31] | > 9.00 | 7.70 to 9.00 | > 9.00
C[C@H]1O[C@@H](n2c(NCCC3CCN(C)CC3)nc3c(OCc4ccc([N+](=O)[O-])cc4)ncnc32)[C@H](O)[C@@H]1O [Compound 34] | 6.30 to 7.70 | 6.30 to 7.70 | 7.70 to 9.00
CC(C)Nc1nc2c(OCc3ccc(C#N)cc3)ncnc2n1[C@@H]1O[C@H](C)[C@@H](O)[C@H]1O [Compound 40] | 7.70 to 9.00 | 6.30 to 7.70 | > 9.00
C[C@H]1O[C@@H](n2c(NCCCO)nc3c(OCc4ccc(OC(F)F)cc4)ncnc32)[C@H](O)[C@@H]1O [Compound 44] | 7.70 to 9.00 | 6.30 to 7.70 | 7.70 to 9.00
C[C@H]1O[C@@H](n2c(NC3CC(F)(F)C3)nc3c(OCc4ccc([N+](=O)[O-])cc4)ncnc32)[C@H](O)[C@@H]1O [Compound 47] | 7.70 to 9.00 | 6.30 to 7.70 | > 9.00
C[C@H]1O[C@@H](n2c(NC3CC(F)(F)C3)nc3c(OCc4ccc(C#N)cc4)ncnc32)[C@H](O)[C@@H]1O [Compound 49] | 7.70 to 9.00 | 6.30 to 7.70 | < 6.30
C[C@H]1O[C@@H](n2c(NC3CCC(O)CC3)nc3c(OCc4ccc(OC(F)F)cc4)ncnc32)[C@H](O)[C@@H]1O (stereo partly drawn) [Compound 53] | > 9.00 | 7.70 to 9.00 | > 9.00
C[C@H]1O[C@@H](n2c(NC3CCS(=O)(=O)CC3)nc3c(OCc4ccc(C#N)cc4)ncnc32)[C@H](O)[C@@H]1O [Compound 54] | > 9.00 | 6.30 to 7.70 | > 9.00
C[C@H]1O[C@@H](n2c(NC3CCS(=O)(=O)CC3)nc3c(OCc4ccc(OC(F)F)cc4)ncnc32)[C@H](O)[C@@H]1O [Compound 55] | > 9.00 | 7.70 to 9.00 | > 9.00
C[C@H]1O[C@@H](n2c(NCc3cnn(C)c3)nc3c(OCc4ccc(C#N)cc4)ncnc32)[C@H](O)[C@@H]1O [Compound 65] | 7.70 to 9.00 | 6.30 to 7.70 | 7.70 to 9.00
C[C@H]1O[C@@H](n2c(N[C@@H]3CCOC3)nc3c(OCc4ccc(C#N)cc4)ncnc32)[C@H](O)[C@@H]1O [Compound 77] | 7.70 to 9.00 | 6.30 to 7.70 | > 9.00
